Measured values as given in ChEMBL document CHEMBL3885881, “DrugMatrix”.

Organism: Rattus norvegicus
Assay: DrugMatrix - Regimen: Daily Repeat
Format: toxicity, organism-based, Sprague-Dawley
Design: regimen Daily Repeat, gender Male, age 6-8 weeks
Details: in vivo, po, route oral GAVAGE, vehicle .5 % CMC; for ABSOLUTE BASOPHIL / ABSOLUTE EOSINOPHIL / ABSOLUTE LYMPHOCYTE / ABSOLUTE MONOCYTE / ABSOLUTE SEGMENTED NEUTROPHIL / BASOPHIL / EOSINOPHIL / ERYTHROCYTE COUNT / HEMATOCRIT / HEMOGLOBIN / LEUKOCYTE COUNT / LYMPHOCYTE / MEAN CORPUSCULAR HEMOGLOBIN / MEAN CORPUSCULAR HEMOGLOBIN CONCENTRATION / MEAN CORPUSCULAR VOLUME / MONOCYTE / NEUTROPHIL / NUCLEATED RED BLOOD CELLS / PLATELET COUNT: tissue Blood; for ALANINE AMINOTRANSFERASE / ALBUMIN / ALKALINE PHOSPHATASE / ASPARTATE AMINOTRANSFERASE / BLOOD UREA NITROGEN / CARBON DIOXIDE / CHLORIDE / CHOLESTEROL / CREATINE PHOSPHOKINASE / CREATININE / GLUCOSE / LACTATE DEHYDROGENASE / LIPASE / PHOSPHORUS / POTASSIUM / SODIUM / TOTAL BILIRUBIN / TOTAL PROTEIN / URIC ACID: tissue Plasma
[1] = 10 mg/kg, 120 h, dose level Low, time 5 day
[2] = 2500 mg/kg, 72 h, dose level High, time 3 day
[3] = 2500 mg/kg, 120 h, dose level High, time 5 day

## O=C1CN=C(c2ccccc2Cl)c2cc([N+](=O)[O-])ccc2N1 [CLONAZEPAM]
[1]
  ABSOLUTE BASOPHIL: 0 CELLS/uL
  ABSOLUTE EOSINOPHIL: 31 CELLS/uL
  ABSOLUTE LYMPHOCYTE: 8153 CELLS/uL
  ABSOLUTE MONOCYTE: 62 CELLS/uL
  ABSOLUTE SEGMENTED NEUTROPHIL: 620.67 CELLS/uL
  BASOPHIL: 0%
  EOSINOPHIL: 0.33%
  ERYTHROCYTE COUNT: 5.74 x10E6/uL
  HEMATOCRIT: 35.3%
  HEMOGLOBIN: 13.87 G/DL
  LEUKOCYTE COUNT: 8.87 x10E3/uL
  LYMPHOCYTE: 91.67%
  MEAN CORPUSCULAR HEMOGLOBIN: 24.13 pg
  MEAN CORPUSCULAR HEMOGLOBIN CONCENTRATION: 39.3 G/DL
  MEAN CORPUSCULAR VOLUME: 61.43 fL
  MONOCYTE: 0.67%
  NEUTROPHIL: 7.33%
  NUCLEATED RED BLOOD CELLS: 0 /100WBC
  PLATELET COUNT: 1168 x10E3/uL
  ALANINE AMINOTRANSFERASE: 54 u/L
  ALBUMIN: 4.33 G/DL
  ALKALINE PHOSPHATASE: 274.67 u/L
  ASPARTATE AMINOTRANSFERASE: 97 u/L
  BLOOD UREA NITROGEN: 18.67 mg/dL
  CARBON DIOXIDE: 25.67 mmol/L
  CHLORIDE: 98.67 MEQ/L
  CHOLESTEROL: 75.33 mg/dL
  CREATINE PHOSPHOKINASE: 826.67 u/L
  CREATININE: 0.19 mg/dL
  GLUCOSE: 177.67 mg/dL
  LACTATE DEHYDROGENASE: 201 u/L
  LIPASE: 10 u/L
  PHOSPHORUS: 11.6 mg/dL
  POTASSIUM: 5.92 MEQ/L
  SODIUM: 138.97 MEQ/L
  TOTAL BILIRUBIN: 0.13 mg/dL
  TOTAL PROTEIN: 6.07 G/DL
  URIC ACID: 1.63 mg/dL
[2]
  ABSOLUTE BASOPHIL: 0 CELLS/uL
  ABSOLUTE EOSINOPHIL: 0 CELLS/uL
  ABSOLUTE LYMPHOCYTE: 8925.67 CELLS/uL
  ABSOLUTE MONOCYTE: 256 CELLS/uL
  ABSOLUTE SEGMENTED NEUTROPHIL: 1951.67 CELLS/uL
  BASOPHIL: 0%
  EOSINOPHIL: 0%
  ERYTHROCYTE COUNT: 5.85 x10E6/uL
  HEMATOCRIT: 36.6%
  HEMOGLOBIN: 14.27 G/DL
  LEUKOCYTE COUNT: 11.13 x10E3/uL
  LYMPHOCYTE: 79%
  MEAN CORPUSCULAR HEMOGLOBIN: 24.47 pg
  MEAN CORPUSCULAR HEMOGLOBIN CONCENTRATION: 39.03 G/DL
  MEAN CORPUSCULAR VOLUME: 62.67 fL
  MONOCYTE: 2.33%
  NEUTROPHIL: 18.67%
  NUCLEATED RED BLOOD CELLS: 0.33 /100WBC
  PLATELET COUNT: 1190 x10E3/uL
  ALANINE AMINOTRANSFERASE: 88.33 u/L
  ALBUMIN: 3.97 G/DL
  ALKALINE PHOSPHATASE: 322 u/L
  ASPARTATE AMINOTRANSFERASE: 132 u/L
  BLOOD UREA NITROGEN: 19.33 mg/dL
  CARBON DIOXIDE: 31.33 mmol/L
  CHLORIDE: 100.33 MEQ/L
  CHOLESTEROL: 88.67 mg/dL
  CREATINE PHOSPHOKINASE: 910.33 u/L
  CREATININE: 0.49 mg/dL
  GLUCOSE: 134.33 mg/dL
  LACTATE DEHYDROGENASE: 213.67 u/L
  LIPASE: 11.33 u/L
  PHOSPHORUS: 13.77 mg/dL
  POTASSIUM: 6.47 MEQ/L
  SODIUM: 143.17 MEQ/L
  TOTAL BILIRUBIN: 0.2 mg/dL
  TOTAL PROTEIN: 5.7 G/DL
  URIC ACID: 0.57 mg/dL
[3]
  ABSOLUTE BASOPHIL: 0 CELLS/uL
  ABSOLUTE EOSINOPHIL: 0 CELLS/uL
  ABSOLUTE LYMPHOCYTE: 10757.67 CELLS/uL
  ABSOLUTE MONOCYTE: 124 CELLS/uL
  ABSOLUTE SEGMENTED NEUTROPHIL: 1618.33 CELLS/uL
  BASOPHIL: 0%
  EOSINOPHIL: 0%
  ERYTHROCYTE COUNT: 5.66 x10E6/uL
  HEMATOCRIT: 34.97%
  HEMOGLOBIN: 14.27 G/DL
  LEUKOCYTE COUNT: 12.5 x10E3/uL
  LYMPHOCYTE: 85.67%
  MEAN CORPUSCULAR HEMOGLOBIN: 25.23 pg
  MEAN CORPUSCULAR HEMOGLOBIN CONCENTRATION: 40.83 G/DL
  MEAN CORPUSCULAR VOLUME: 61.8 fL
  MONOCYTE: 1%
  NEUTROPHIL: 13.33%
  NUCLEATED RED BLOOD CELLS: 0 /100WBC
  PLATELET COUNT: 964.33 x10E3/uL
  ALANINE AMINOTRANSFERASE: 84 u/L
  ALBUMIN: 3.93 G/DL
  ALKALINE PHOSPHATASE: 331.67 u/L
  ASPARTATE AMINOTRANSFERASE: 114 u/L
  BLOOD UREA NITROGEN: 19 mg/dL
  CARBON DIOXIDE: 27 mmol/L
  CHLORIDE: 102.33 MEQ/L
  CHOLESTEROL: 93 mg/dL
  CREATINE PHOSPHOKINASE: 261 u/L
  CREATININE: 0.2 mg/dL
  GLUCOSE: 136.67 mg/dL
  LACTATE DEHYDROGENASE: 217.67 u/L
  LIPASE: 10.33 u/L
  PHOSPHORUS: 9.8 mg/dL
  POTASSIUM: 5.43 MEQ/L
  SODIUM: 142.37 MEQ/L
  TOTAL BILIRUBIN: 0.2 mg/dL
  TOTAL PROTEIN: 5.73 G/DL
  URIC ACID: 1.13 mg/dL
